In one assay the test system is EO771 tumors. The assay is described as follows: CyTOF immune profile of EO771 tumors. It counts as in vivo, C57BL/6 mice. Here is the method:
Animal studies: All animal experiments were performed in accordance with the National Institutes of Health's Animal Use Guidelines and protocols approved by the Animal Care and Use Committee of Indiana University School of Medicine. […] Each mouse was injected with a total of 2×10^5 tumor cells. 5 mice were used in each group. Tumors were measured in two dimensions using a manual caliper. Tumor volume was calculated using the following formula: V=0.5×length×width×width. Tumor volume was measured every 3 days. Tumors were harvested 22 days after injection. The tumor growth, volume and weight were analyzed. To evaluate the anti-tumor effect of drugs in immunocompetent C57BL/6 mice and immunodeficient nude (NU/J) mice, 2×10^5 EO771 cells were orthotopically injected into fat pad of the 4th mammary gland in female mice. […] For CD4/CD8 depletion experiment, the tumor-bearing mice were randomly divided into 7 groups (n=8 mice/group) including isotype control (rat IgG2a, Bioxcell), isotype control+CUDC-101, isotype control+BML-210, anti-CD8 (Clone: 53-6.72, Bioxcell)+CUDC-101, anti-CD8+BML-210, anti-CD4 (Clone: GK1.5, Bioxcell)+CUDC-101, or anti-CD4+BML-210. Intraperitoneal injection of inhibitors (20 mg kg-1) and anti-CD4/CD8 (10 mg kg-1) were administrated to the mice by 3 times/week for 2 weeks. The tumors were harvested at day 18 (NU/J mice) or day 28 (C57BL/6 mice) for further analyses. In immune checkpoint blockade experiment, 2×10^5 EO771 cells were orthotopically injected into fat pad of the 4th mammary gland in female C57BL/6 mice. From day 10, the tumor-bearing mice were randomly divided into each treatment group (n=8 mice/group), and the mice were treated with IgG2a isotype control antibody (clone 2A3, Bioxcell), BML-210 (20 mg kg-1), anti-PD-1 (200 μg/mouse, Bioxcell), or BML-210 and anti-PD-1 combo. The treatment was done 3 times/week for 2 weeks. Tumors were harvested at day 26 post injection and the tumors were analyzed by IHC staining, flow cytometry, ELISA or CyTOF assay. Mass Cytometry (CyTOF): EO771 tumors in C57BL/6 mice were harvested and dissociated into single cells. 1×10^6 single cells from each sample were suspended in ice-cold buffer (PBS with 0.5% BSA and 0.02% Azide). The antibody panel (Table 1) was used for sample staining. Samples were analyzed using the CyTOF 2 Mass Cytometer (Fluidigm). All the samples were done on bead-based normalization before analysis on Cytobank. CyTOF data were analyzed using viSNE analysis64 in the Cytobank platform. The viSNE analysis uses the Barnes-Hut implementation of the t-Distributed Stochastic Neighbor embedding (tSNE) algorithm. The cell populations were visualized on viSNE as an overlay plot.

The subject of a further assay is EO771 cells. Nature of the assay: Gene expression in EO771 cells (RNA-seq, quantitative RT-PCR). It counts as cell-based, mouse. The protocol: Quantitative reverse transcription PCR (RT-PCR): Mouse EO771 cells were treated with and without BML-210 drug for 48 h. Total RNA was isolated from the cells using TRIzol (Ambion, Lot: 260808) and the miRNeasy Mini kit (Qiagen, 157029493, Thermo Scientific). The quality of the RNA was quantified by a Nano Drop 2000 spectrophotometer. A total of 1 μg RNA was reverse transcribed into cDNA using the […] superMix reagent (Quantabio, 66141329). Quantitative PCR was performed using SYBR Green […] low Rox reagent (TaKaRa) on a Quantstudio real-time PCR system (ThermoFisher Scientific). RNA sequencing: Total RNA was extracted from EO771 cells using TRIzol (Ambion) and the miRNeasy Mini kit (Qiagen). The quantity and quality of the RNA was evaluated by an Agilent Bioanalyzer 2100. 100 ng of total RNA from each sample was used, from which ribosomal RNA was removed by the QIAseq FastSelect rRNA Removal HMR Kit (Qiagen). The cDNA library was constructed using the KAPA RNA Hyper Prep Kit (Roche Corporate) and the quality was accessed by the Qubit and Agilent Bioanalyzer. The library pool was sequenced in 100b paired-end read format on NovaSeq 6000 (Illumina) at the Center for Medical Genomics, Indiana University School of Medicine (IUSM). RNA-seq analysis: The reads were mapped to the mouse genome mm10 using STAR (v2.5)65. RNA-seq aligner with the following parameter: “--outSAMmapqUnique 60”. Uniquely mapped sequencing reads were assigned to GENCODE M22 genes using feature Counts (v1.6.2)66 with the following parameters: “-s 2 -p -Q 10”. […] The data were visualized with volcano plot using MATLAB. The gene enrichment analysis on DEGs from the Kyoto Encyclopedia of Genes and Genomes (KEGG) pathway database and Gene Ontology database was performed using the Database for Annotation, Visualization and Integrated Discovery (DAVID) functional analysis69. The analysis was visualized using MATLAB with q value (-log 10) and gene number in each GO and pathway. Gene set enrichment analysis (GSEA) of the antigen processing and presentation pathway was carried out with GSEA software70.

The values below come from patent US20240299321A1, “METHODS TO SENSITIZE CANCER CELLS AND STANDARDIZED SCREENING ASSAY FOR IMMUNOTHERAPY” (THE TRUSTEES OF INDIANA UNIVERSITY, priority 2020, published 2024).

Each structure is given as a SMILES string.

Consider `Nc1ccccc1NC(=O)CCCCCCC(=O)Nc1ccccc1` [BML-210], for which the “infiltration of PMN-MDSCs” value with EO771 tumors (CD11b+Ly6G+Ly6ClowF4/80−) was “decreased infiltration”. In the assay on EO771 tumors (CD11b+Ly6G-Ly6C+F4/80−), the Mo-MDSCs result is “increased”. Besides, in the assay with EO771 tumors (mouse, in vivo), the “tumor-associated macrophage (TAM M1 and TAM M2) populations” value is “No significant differences”. Moreover, the “infiltration of immune lymphocytes, particularly CD8+ T effector cells and NK cells” value in the assay on EO771 tumors (tumors 26 days post implantation) is on record as “notably enhanced infiltration”. For the same compound, in the assay on EO771 cells (EO771, BML-210 1.0 μM, FIG. 4A), the “expression of antigen processing and presentation DEGs (qPCR)” value is “most of DEGs had higher expression levels”. Also, in the assay with EO771 cells (RNA-seq), the “MHC-I genes (H2-D1, H2-K2, B2M), lysosome gene (Lamp1), endosome gene (Hspa8)” value was “induced”; the “genome-wide gene expression profile (GO enrichment)” value is “upregulation of genes particularly enriched in lysosome, phagosome, antigen processing and presentation pathways”.
